Drawing on patent US9187411B2, “Leukotriene B4 antagonist compound” (Eli Lilly and Company, priority 2012, dated 2015), this text covers Kb and IC50 for one compound.

Experiment [1] has as its target T1, high-affinity (BLT1) LTB4 receptor (Homo sapiens, UniProt Q15722).
T1 construct: expressed in transfected cells
The experiment is described as follows: FLIPR calcium release assay (LTB4-induced calcium mobilization). The class given is cell-based. As to conditions: CHO-K1 cells expressing BLT1, 8 nM LTB4, n of 2. The protocol:
hBLT1/CHO-K1 Stable Xcell Line Preparations: Human BLT1 receptor DNA (National Center for Biotechnology Information (NCBI), Reference Sequence NM_181657) is synthesized and cloned into expression vector pcDNA3.1/Hygro(+) (Invitrogen V87020). The cDNA expression vector construct is transfected into Chinese hamster ovary (CHO-K1) cells (American Type Culture Collection (ATCC) CCL-61) using Lipofectamine 2000 (Invitrogen) as transfection reagent. Cells are cultured in selective Dulbecco's Modified Eagle Medium (DMEM) containing 200 μg/mL Hygromycin, 24 hours post transfection. Single clones are isolated and screened for BLT1 expression and function using Western Blot analysis and Fluorometric Imaging Plate Reader (FLIPR®) calcium release assay.
Chinese hamster ovary (CHO-K1) cells stably expressing the high-affinity (BLT1) LTB4 receptor are seeded at 10,000 cells/well in a 96 well plate (Corning) in growth medium containing DMEM/F-12 (3:1) w/o phenol red (Invitrogen), 5% fetal bovine serum (FBS) (Hyclone), 20 mM HEPES (Invitrogen), 200 μg/mL Hygromycin B (Invitrogen) and 40 μg/mL L-Proline (Sigma). The plate is incubated for 22-24 h at 37° C. 5% CO2 then growth medium is replaced with 50 μL/well of test medium containing Roswell Park Memorial Institute (RPMI) RPMI-1640 w/o phenol red, 20 mM HEPES (both from Invitrogen), and 0.2% w/v Bovine Serum Albumin (Sigma). […]
In general terms: Calcium assays in cells follow changes in intracellular calcium, usually with a dye or a luminescent sensor.

For experiment [2], the system named is LTB4-induced phosphorylation of ERK in monocytes. The experiment is described as follows: Human pERK assay in whole blood. The class given is cell-based. Particulars: Monocyte, 10 nM LTB4. The protocol:
The ability of the compound of Example 2 to block LTB4-induced signaling through BLT1 was assessed in whole blood obtained from healthy human volunteers and from 129SvEv mice that are the model strain for preclinical AAA efficacy evaluation.
Whole blood is collected from human donors in 10 mL K2 ethylenediaminetetraacetic acid (EDTA) vacutainer tubes (BD Biosciences). Aliquots of whole blood are pre-warmed at 37° C. for 20 min. 10 point dose response curves of test compounds are assayed at final concentrations of 20 nM-10 μM. 10 point ½ serial dilutions of compound at 1000× of final assayed concentration are prepared in DMSO. Compound is then diluted to 10× in Dulbecco's Phosphate Buffered Saline (DPBS) (DMSO concentration is now 1%). 10 μL of compound dilutions (at 10× in DPBS) or 1% DMSO in DPBS are added to wells of a 2.0 mL volume 96 deep well plate (Nunc) and placed in 37° C. heat block.
Immediately thereafter, 80 μL whole blood is added and incubated for 20 min at 37° C. […] Samples are warmed to room temperature and analyzed on a Beckman Coulter FC500 flow cytometer. […] Data are analyzed with WinList software (Verity Software House) to determine mean and median fluorescent intensity values for pERK-PE from monocyte population.

The term IC50 denotes the concentration that inhibits the measured activity by half.

T1 sequence (Q15722 whole entry): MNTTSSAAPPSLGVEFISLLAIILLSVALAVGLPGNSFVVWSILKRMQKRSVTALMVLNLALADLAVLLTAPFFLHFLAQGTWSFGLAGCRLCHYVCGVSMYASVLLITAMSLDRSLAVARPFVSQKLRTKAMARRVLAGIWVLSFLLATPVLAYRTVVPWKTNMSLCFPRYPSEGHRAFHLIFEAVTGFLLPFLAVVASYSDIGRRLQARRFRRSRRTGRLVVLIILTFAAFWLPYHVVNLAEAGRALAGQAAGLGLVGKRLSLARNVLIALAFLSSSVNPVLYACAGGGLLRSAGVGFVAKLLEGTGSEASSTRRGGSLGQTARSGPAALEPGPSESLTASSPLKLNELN

Regarding `CCCc1c(NC(=O)CC(C)(C)C(=O)[O-])cccc1OCCCOc1cc(O)c(-c2ccc(F)cc2)cc1CC.[Na+]` [Example 2, Sodium 4-[[3-[3-[2-ethyl-4-(4-fluorophenyl)-5-hydroxy-phenoxy]propoxy]-2-propyl-phenyl]amino]-2,2-dimethyl-4-oxo-butanoate], in experiment [1] (read-out: inhibition of LTB4-induced calcium mobilization Kb), the Kb stood at 0.98 nM. Also, the IC50 in experiment [1] (read-out: inhibition of LTB4-induced calcium mobilization relative IC50) turned out to be 6.48 nM; in experiment [2], 814 nM.
